Results from patent EP4643657A1, “COMPOSITIONS CONTAINING SHORT-CHAIN FATTY ACID, METHODS OF USE, AND METHODS OF MAKING THEREOF” (Velocity Life Sciences, LLC, priority 2024, dated 2025).
Values joined by “and” are separate entries in the source; they are usually repeats but may differ in a detail not shown here. Equal entries are not always repeated. “Also recorded” adds a separate entry of the source.

Key:
[1] = Nootropic and related properties after oral administration (Example 3); assay type: in vivo, human
Method: In another experiment, L-lysine butyrate in a dose range of 500 mg to 5,000 mg was administered as an aqueous solution to six individuals aged between 22 and 55 years, comprising two women and four men. […] The observed effects were dose-dependent, with larger doses of L-lysine butyrate providing greater effects and longer duration, lasting up to four hours.
In another experiment, L-lysine butyrate in a dose of 2 g, and on a separate occasion 5 g, was administered in encapsulated form, to 2 individuals. A further individual was administered L-lysine butyrate in a dose of 2 g in encapsuled form.

[2] = Visual-analog scales of affect, randomized three-arm crossover trial (Example 5); assay type: in vivo, human
Method: Experimental Design: This was a randomized, three-arm, crossover trial in which participants visited the laboratory on four occasions (one screening visit and three testing visits). […] Written informed consent was obtained from all subjects prior to enrollment. The study was retrospectively registered on clinicaltrials.gov (#NCT06700785). This study was conducted at The Center for Applied Health Sciences, a contract research organization located in Northeast Ohio. […] VAS assessed subjective ratings of state of well-being, calm and relaxed, stressed and anxious, mood, motivation to perform tasks, level of alertness, and ability to concentrate and were anchored with "Worst possible", "Lowest possible", "Strongly Disagree", or "Best Possible", "Highest Possible", "Strongly Agree". […] Statistical Analyses: Normality was assessed using Q-Q plot and Shapiro-Wilks test. Severe non-normal measures were normalized using log (In) transformation. Serum butyrate concentrations, subjective ratings of affect, and vitals over time between treatments were analyzed using a mixed effects factorial ANOVA . Tukey post hocs were applied if significant main effects/interactions were observed. […] Effect sizes are reported as Cohen's d (with 0.2 considered a small effect, 0.5 considered a medium effect, and 0.8 considered a large effect). All analyses were conducted in GraphPad Prism v.10.4.0.

[3] = Exposure of the prepared salt to air at room temperature (hygroscopicity, storage stability); assay type: physicochemical; conditions: for Hygroscopicity: exposed at room temperature to air
Excerpt: The L-arginine butyrate prepared using ethanol as the sole solvent was a white to off-white powder.
The L-lysine butyrate prepared using ethanol as the sole solvent was a light, pale yellow to yellow powder. […] Table 1: Attempted preparation of salts of amino acids and amino acid derivatives of butyric acid.

[4] = Serum butyrate pharmacokinetics, randomized three-arm crossover trial (Example 5); conditions: for Serum Butyrate: 10 healthy men, Mean ± SD; for Tmax comparison between treatments: Wilcoxon rank test; for AUC0-210 comparison between treatments / Cmax comparison between treatments: paired samples t-test
[5] = 500 mg to 5,000 mg as aqueous solution, six individuals
[6] = 0 min (prior to ingestion), 100-mm VAS, Mean±SD
[7] = motivation to perform tasks, 0 min (prior to ingestion), 100-mm VAS, Mean±SD
[8] = seven (7) days at room temperature

CCCC(=O)O [L-Lysine Butyrate, L-lysine butyrate]
Dose dependence of observed effects ([1]; 500 mg to 5,000 mg as aqueous solution): dose-dependent | Effects reported by participants [1, 5]: more relaxed, less tired, more sociable, and able to concentrate on tasks more effectively | Time to reported effects after administration [1, 5]: thirty | Duration of effects ([1]; 500 mg to 5,000 mg as aqueous solution, larger doses): up to four | Analgesic effect ([1]; 2 g oral, encapsulated form, two of the individuals): analgesic effect, eliminating minor-to-moderate pain and discomfort | Mental effects ([1]; single oral administration of 2 g, encapsulated form): pleasant mental effects, including an improvement in focus, alertness, concentration, reduction in anxiety, and a general feeling of well-being | Mental effects ([1]; single oral administration of 5 g, encapsulated form): undesirable mental effects, interfering with focus and alertness, with effects similar to intoxication | Alertness [2, 6]: 6.9 ± 1.5^€ | Calm and Relaxed [2, 6]: 7.5 ± 0.8^# cm | Concentration [2, 6]: 7.1 ± 1.3 cm | Mood [2, 6]: 7.7 ± 0.9 cm | Stressed and Anxious [2, 6]: 2.0 ± 1.4 cm | Well-being [2, 6]: 7.3 ± 0.9 cm | Alertness ([2]; in vivo, po): 7.2 ± 1.3 and 7.4 ± 1.2 and 7.5 ± 1.2 and 7.5 ± 1.1 | Alertness AUC ([2]; in vivo, po): 1544 ± 249 | Calm and Relaxed ([2]; in vivo, po): 7.7 ± 0.9^# cm and 7.6 ± 1.2 cm and 7.6 ± 1.1^# cm and 8.0 ± 0.9 cm | Calm and Relaxed AUC ([2]; in vivo, po): 1612 ± 207 | Concentration ([2]; in vivo, po): 7.1 ± 1.4 cm and 7.5 ± 1.3^β cm and 7.4 ± 1.1 cm and 7.3 ± 1.6 cm | Concentration AUC ([2]; in vivo, po): 1532 ± 241 | Mood ([2]; in vivo, po): 7.9 ± 0.7 cm and 7.6 ± 1.1 cm and 8.0 ± 0.7 cm and 8.0 ± 0.8 cm | Mood AUC ([2]; in vivo, po): 1651 ± 171 | Perform Tasks ([2]; in vivo, po): 7.1 ± 1.3 cm and 7.4 ± 1.1 cm and 7.6 ± 1.3 cm | Perform Tasks AUC ([2]; in vivo, po): 1547 ± 262 | Stressed and Anxious ([2]; in vivo, po): 2.1 ± 1.6 cm and 2.3 ± 1.7 cm and 1.8 ± 1.3 cm and 2.0 ± 1.3 cm | Stressed and Anxious AUC ([2]; in vivo, po): 431 ± 288 | Well-being ([2]; in vivo, po): 7.6 ± 0.9^# cm and 7.6 ± 1.1 cm and 7.7 ± 1.0^# cm and 8.0 ± 0.9 cm | Well-being AUC ([2]; in vivo, po): 1610 ± 195 | Perform Tasks [2, 7]: 6.9 ± 1.7 cm | Appearance after exposure to air ([3]; 24 hours at room temperature): remained a fine, free-flowing yellow powder | Hygroscopicity [3]: not hygroscopic | Appearance after exposure to air [3, 8]: remained a fine, free-flowing powder with no color change | Appearance after exposure to air ([3]; thirty (30) days at room temperature): remained a fine, free-flowing powder | Serum Butyrate ([4]; 0 min (baseline, prior to ingestion)): 0.32 ± 0.43 µg/mL | Serum Butyrate ([4]; 20 min post ingestion, oral, 3 capsules delivering 786 mg of butyric acid): 4.53 ± 7.56 µg/mL | Serum Butyrate ([4]; 45 min post ingestion, oral, 3 capsules delivering 786 mg of butyric acid): 0.77 ± 1.49 µg/mL | Serum Butyrate ([4]; 90 min post ingestion, oral, 3 capsules delivering 786 mg of butyric acid): 0.39 ± 0.62 µg/mL | Serum Butyrate ([4]; 150 min post ingestion, oral, 3 capsules delivering 786 mg of butyric acid): 0.43 ± 0.64 µg/mL | Serum Butyrate ([4]; 210 min post ingestion, oral, 3 capsules delivering 786 mg of butyric acid): 0.37 ± 0.55 µg/mL | Tmax comparison between treatments ([4]; listed as LysB): did not differ from NaB; also recorded: significantly less than TB | AUC0-210 comparison between treatments ([4]; listed as LysB): did not differ from NaB; also recorded: significantly greater than TB | Cmax comparison between treatments ([4]; listed as LysB): did not differ from NaB; also recorded: significantly greater than TB

CCCC(=O)[O-].[Na+] [Sodium Butyrate, Sodium butyrate]
Alertness [2, 6]: 6.4 ± 1.2 | Calm and Relaxed [2, 6]: 7.6 ± 0.9 cm | Concentration [2, 6]: 6.4 ± 1.2 cm | Mood [2, 6]: 7.1 ± 1.2 cm | Stressed and Anxious [2, 6]: 2.4 ± 1.4 cm | Well-being [2, 6]: 7.0 ± 1.2 cm | Alertness ([2]; in vivo, po): 6.5 ± 1.6 and 6.8 ± 1.3 and 6.7 ± 1.6 and 7.1 ± 1.8 | Alertness AUC ([2]; in vivo, po): 1411 ± 293 | Calm and Relaxed ([2]; in vivo, po): 7.3 ± 1.2 cm and 7.6 ± 1.0 cm and 7.9 ± 1.1^¥ cm and 7.9 ± 1.2 cm | Calm and Relaxed AUC ([2]; in vivo, po): 1608 ± 216 | Concentration ([2]; in vivo, po): 6.4 ± 1.7 cm and 6.6 ± 1.5 cm and 6.5 ± 1.9 cm and 6.9 ± 2.1 cm | Concentration AUC ([2]; in vivo, po): 1371 ± 343 | Mood ([2]; in vivo, po): 7.1 ± 1.1 cm and 7.4 ± 1.2 cm and 7.7 ± 1.0 cm and 7.8 ± 1.2 cm | Mood AUC ([2]; in vivo, po): 1558 ± 215 | Perform Tasks ([2]; in vivo, po): 6.8 ± 1.6 cm and 7.1 ± 1.3 cm and 6.9 ± 1.7 cm and 7.1 ± 1.5 cm | Perform Tasks AUC ([2]; in vivo, po): 1452 ± 297 | Stressed and Anxious ([2]; in vivo, po): 2.3 ± 1.5 cm and 2.3 ± 1.6 cm and 2.1 ± 1.8 cm and 2.0 ± 1.8 cm | Stressed and Anxious AUC ([2]; in vivo, po): 466 ± 339 | Well-being ([2]; in vivo, po): 7.2 ± 1.2 cm and 7.3 ± 1.2 cm and 7.5 ± 1.1 cm and 7.6 ± 1.3 cm | Well-being AUC ([2]; in vivo, po): 1543 ± 242 | Perform Tasks [2, 7]: 6.5 ± 1.4^£ # cm | Tmax comparison between treatments [4]: significantly less than TB | AUC0-210 comparison between treatments [4]: significantly greater than TB | Cmax comparison between treatments [4]: significantly greater than TB

L-arginine butyrate
Appearance after exposure to air ([3]; 24 hours at room temperature): formed hard, rock-like clumps | Hygroscopicity [3]: quite hygroscopic | Appearance after exposure to air [3, 8]: significantly hydrated into, large solid masses
